The nature of data set [1]: cytotoxicity assay (percent viability of HEp-2 cells, Cell Titer-Glo). To be noted: human, HEp-2 cells. (In general: Cellular ATP, detected with luciferase, serves as a proxy for viable cell number.)
Description: Test compounds were evaluated by measuring their antiviral activity, cell toxicity, and selectivity. Test compounds were serially diluted in a plate to plate matrix or “stacked plate” matrix. All 320 compounds in a source plate were diluted together resulting in a 10 point dose response dilution series. It was visualized as a serial dilution series proceeding vertically through a stack of plates with the high dose plate on top and the low dose plate on the bottom.
Following the six day incubation period, the assay plates were equilibrated to room temperature for 30 min and an equal volume (30 μL) of Cell Titer-Glo reagent (Promega Inc.) was added to each well using a WellMate (Matrix, Hudson, N.H.) and plates were incubated for an additional 10 min at room temperature. At the end of the incubation, luminescence was measured using a Perkin Elmer Envision™ multi-label reader (PerkinElmer, Wellesley, Mass.) with an integration time of 0.1 s.
Data was analyzed using ActivityBase software (IDBS, Inc, Guilford, UK). thirty two control wells containing cells only and twenty four wells containing cells and virus were included on each assay plate and used to calculate Z′ value for each plate and to normalize the data on a per plate basis. […] Eight ribavirin positive control wells were included on each plate for quality control purposes, but were not used in Z′ calculations. […] In the toxicity assay, results are described as percent viability and the calculation is the same.
An EC50 (for CPE inhibition) and IC50 (for cell viability) were calculated for each substance using the 4 parameter Levenburg-Marquardt algorithm with parameter A locked at 0 and parameter B locked at 100. Standard deviation, normalized chi2 and hill slope were used to evaluate the curves. Values were not extrapolated beyond the tested range of concentrations.
Data set [2] concerns respiratory syncytial virus (RSV) strain Long. Kind of data set: microbe, parasite or virus in culture. To be noted: human respiratory syncytial virus, HEp-2, 144 h.
The test system of a further data set is RSV, Long strain. Kind of data set: virus titer Reduction (VTR) assay, progeny virus TCID50 in HEp-2 cells. To be noted: human respiratory syncytial virus, 48 h; for log reduction at 3 µg/mL: 3 ug/ml compound, read-out: TCID-50 Reduction @ 3 ug/ml; for log reduction at 6 µg/mL: 6 ug/ml compound, read-out: TCID-50 Reduction 6 @ ug/ml; for log reduction at 12 µg/mL: 12 ug/ml compound, read-out: TCID-50 Reduction 12 @ ug/ml; for log reduction at 25 µg/mL: 25 ug/ml compound, read-out: TCID-50 Reduction 25 @ ug/ml; for log reduction at 5 µg/mL: 5 ug/ml compound, read-out: TCID-50 Reduction @ 5 ug/ml; for log reduction at 50 µg/mL: 50 ug/ml compound, read-out: TCID-50 Reduction @ 50 ug/ml. In kind it is cell-based, respiratory syncytial virus (RSV). As to the method: Four concentrations of each compound were evaluated (Table 3). Briefly, the four concentrations of test compounds, HEp-2 cells (8×10^3 per well) and RSV, Long strain (MOI=0.9) were plated in 96 well microtiter plates. The plates were incubated for 48 hours. Fifteen (15) μl of 10-fold serial dilution of progeny virus containing medium from respective samples (test compound treated or untreated) was transferred to infect fresh HEp-2 cells (2×10^3 cells per well) in a 384 well format. Plates were incubated for an additional 6 days and luminescence was measured using Cell Titer-Glo reagent (Promega Inc.) to determine cell viability. […] A well showing lesser than 50% cell viability was regarded as positive for virus infection. Four replicates for each virus dilution were analyzed and the number of virus positive wells (out of 4) was plotted versus the dilution. TCID50 was calculated to be the dilution that produced two positive wells out of four using ActivityBase software (IDBS, Inc, Guilford, UK).

Take `COCc1cc(C)nc(SCC(=O)Nc2ccccc2C(=O)c2ccccc2)c1C#N` [AB00341850]: in data set [1], the CC50 (commonly the concentration at which the toxic effect on the cells reaches its halfway point) at 6 days was > 25 µg/mL. Moreover, in data set [2], the EC50 (commonly the concentration needed to bring the measured effect to its halfway point) was determined as 2.19 µg/mL. In the data set on RSV, Long strain, the log reduction at 3 µg/mL was 1, the log reduction at 6 µg/mL was found to be 2.3, the log reduction at 12 µg/mL turned out to be 2.41 and the log reduction at 25 µg/mL turned out to be 2.23.
For the compound `Oc1ccc(Nc2nc(-c3ccc(O)cc3)cs2)cc1` [AB00355020], in data set [1], the CC50 at 6 days was > 25 µg/mL. This compound yielded an EC50 in data set [2] of 2.77 µg/mL. Besides, in the data set on RSV, Long strain, the log reduction at 3 µg/mL came out at 1, the log reduction at 6 µg/mL came to 1.01, the log reduction at 12 µg/mL is 2.2 and the log reduction at 25 µg/mL came to 2.55.
Turning to `Cc1sc(NC(=O)c2c(F)cccc2F)nc1-c1ccccc1` [AB00309154], in data set [1], the CC50 at 6 days is > 25 µg/mL. The compound also yielded an EC50 in data set [2] of 6.41 µg/mL. For the same compound, in the data set on RSV, Long strain, the log reduction at 3 µg/mL came out at 1.54, the log reduction at 6 µg/mL was determined as 1.38, the log reduction at 12 µg/mL is 1.42 and the log reduction at 25 µg/mL is 1.88.
Consider `CCOC(=O)C1=C(C)NC(C)=C(C(=O)OCC)C1c1ccc(C#N)cc1` [AB00370331], for which, in data set [1], the CC50 at 6 days was > 25 µg/mL. Besides, the EC50 in data set [2] stood at 4.2 µg/mL. Also, in the data set with RSV, Long strain, the log reduction at 3 µg/mL was -0.15, the log reduction at 6 µg/mL worked out at 1.39, the log reduction at 12 µg/mL was 1.7 and the log reduction at 25 µg/mL was 2.89.
Regarding `COCc1cc(C)nc(SCC(=O)Nc2ccccc2N2CCOCC2)c1C#N` [AB00345103], in data set [1], the CC50 at 6 days was > 25 µg/mL. The compound also returned an EC50 in data set [2] of 2.18 µg/mL. For the same compound, in the data set on RSV, Long strain, the log reduction at 3 µg/mL was 1, the log reduction at 6 µg/mL came out at 1.31, the log reduction at 12 µg/mL is 3.2 and the log reduction at 25 µg/mL was 2.86.
Take `CC1=Nc2ccc(C)c3nc(C)cc(c23)N1c1ccc(C)cc1` [AB00280244]: the CC50 at 6 days in data set [1] is > 25 µg/mL. This compound yielded an EC50 in data set [2] of 8.62 µg/mL. In the data set on RSV, Long strain, the log reduction at 3 µg/mL worked out at 1.55, the log reduction at 6 µg/mL is 1.36, the log reduction at 12 µg/mL was found to be 1.55 and the log reduction at 25 µg/mL was determined as 2.89.
On to `O=C(Nc1ccc(Nc2ccccc2)cc1)c1ccccc1Cl` [AB00280499], for which the CC50 at 6 days in data set [1] was > 25 µg/mL. For the same compound, the EC50 in data set [2] came out at 6.6 µg/mL. In the data set with RSV, Long strain, the log reduction at 3 µg/mL worked out at 2.55, the log reduction at 6 µg/mL was 2.38, the log reduction at 12 µg/mL turned out to be 3.69 and the log reduction at 25 µg/mL was found to be 2.96.
Regarding `COc1ccccc1CCNC(=O)c1cc2c(s1)CCCC2` [AB00367930], the CC50 at 6 days in data set [1] is > 25 µg/mL. The same compound gave an EC50 in data set [2] of 5.77 µg/mL. In the data set on RSV, Long strain, the log reduction at 3 µg/mL came to 1.82, the log reduction at 6 µg/mL amounted to 1.04, the log reduction at 12 µg/mL turned out to be 2.68 and the log reduction at 25 µg/mL was found to be 6.4.
In the case of `CC(C)=CCC1=C(O)C(=O)c2ccccc2C1=O` [AB00514453], the CC50 at 6 days in data set [1] was > 50 µM. Moreover, the EC50 in data set [2] was determined as 7.23 µM. In addition, in the data set on RSV, Long strain, the log reduction at 5 µg/mL worked out at 0.06, the log reduction at 12 µg/mL amounted to 3.33, the log reduction at 25 µg/mL came to 4.47 and the log reduction at 50 µg/mL was 4.87.
Consider `O=C(c1cc(Cl)ccc1Cl)N1CCCN(C(=O)c2cc(Cl)ccc2Cl)CC1` [AB00311948], for which the CC50 at 6 days in data set [1] is > 25 µg/mL. Also, the EC50 in data set [2] was found to be 2.32 µg/mL. Further, in the data set with RSV, Long strain, the log reduction at 3 µg/mL turned out to be 3.13, the log reduction at 5 µg/mL was 4.64, the log reduction at 12 µg/mL amounted to 5.56 and the log reduction at 25 µg/mL stood at 5.9.
On to `O=C(CCSc1ccccc1)Nc1ccccc1C(=O)O` [AB00289457], for which, in data set [1], the CC50 at 6 days is > 25 µg/mL. This compound also returned an EC50 in data set [2] of 2.97 µg/mL. Also, in the data set with RSV, Long strain, the log reduction at 3 µg/mL turned out to be 1, the log reduction at 6 µg/mL was 4.9, the log reduction at 12 µg/mL is 6.73 and the log reduction at 25 µg/mL was determined as 6.57.
`O=C(Cc1c(F)cccc1Cl)Nc1nc2c(s1)CCCC2` [AB00361531]: the 50% cytotoxic concentration (CC50) at 6 days in data set [1] is > 25 µg/mL. This compound also returned an EC50 in data set [2] of 0.83 µg/mL. Moreover, in the data set with RSV, Long strain, the log reduction at 3 µg/mL came to 1.55, the log reduction at 6 µg/mL worked out at 1.74, the log reduction at 12 µg/mL stood at 3.09 and the log reduction at 25 µg/mL stood at 3.78.
Turning to `O=C(NCCSCc1c(F)cccc1Cl)c1cccc([N+](=O)[O-])c1` [AB00306112], in data set [1], the CC50 at 6 days is > 25 µg/mL. The compound further registered an EC50 in data set [2] of 5.86 µg/mL. For the same compound, in the data set on RSV, Long strain, the log reduction at 3 µg/mL is 1.85, the log reduction at 6 µg/mL was 1.38, the log reduction at 12 µg/mL is 1.68 and the log reduction at 25 µg/mL is 2.88.
As for `CCOC(=O)Cc1ccc(NC(=O)c2cc(SC)ccc2Cl)cc1` [AB00359299], the CC50 at 6 days in data set [1] was > 25 µg/mL. In data set [2], the response was half-maximal at 6.76 µg/mL (EC50). In the data set on RSV, Long strain, the log reduction at 3 µg/mL was found to be 1, the log reduction at 6 µg/mL amounted to 1.22, the log reduction at 12 µg/mL was found to be 1.99 and the log reduction at 25 µg/mL was 2.83.
Consider `CCCn1cnc2sc(-c3ccccc3)cc2c1=O` [AB00298501], for which the CC50 at 6 days in data set [1] was > 25 µg/mL. In data set [2], this compound returned an EC50 of 3.14 µg/mL. In the data set with RSV, Long strain, the log reduction at 3 µg/mL turned out to be 1.82, the log reduction at 6 µg/mL came to 2.38, the log reduction at 12 µg/mL worked out at 2.9 and the log reduction at 25 µg/mL came out at 3.78.
Regarding `CC1(C)O[C@@H]2[C@H](O1)[C@@H](CO)O[C@H]2n1ncc(=O)[nH]c1=O` [AB00174524], the CC50 at 6 days in data set [1] is > 50 µM. Also, the EC50 in data set [2] came to 3.25 µM. Besides, in the data set with RSV, Long strain, the log reduction at 5 µg/mL came to 4.58, the log reduction at 12 µg/mL came out at 5.98, the log reduction at 25 µg/mL is 5.56 and the log reduction at 50 µg/mL is 5.87.
`Cc1ccc(-c2csc(N)c2C(N)=O)cc1C` [AB00310739]: the CC50 at 6 days in data set [1] was > 25 µg/mL. The 50% effective concentration (EC50) in data set [2] stood at 6.31 µg/mL. Moreover, in the data set on RSV, Long strain, the log reduction at 3 µg/mL is 1.03, the log reduction at 6 µg/mL amounted to 1.86, the log reduction at 12 µg/mL turned out to be 1.9 and the log reduction at 25 µg/mL came out at 2.39.
Regarding `COCC(C)n1c(SC(C)C(=O)Nc2cc([N+](=O)[O-])ccc2Cl)nc2ccccc2c1=O` (stereo not drawn) [AB00725538], the CC50 at 6 days in data set [1] is > 50 µM. The EC50 in data set [2] stood at 6.3 µM. In addition, in the data set on RSV, Long strain, the log reduction at 5 µg/mL is 2.95, the log reduction at 12 µg/mL amounted to 4.98, the log reduction at 25 µg/mL is 5.56 and the log reduction at 50 µg/mL is 5.87.
For the compound `COC(=O)c1c(-c2ccccc2)csc1NC(=O)c1ccccc1Cl` [AB00311298], the CC50 at 6 days in data set [1] is > 25 µg/mL. In addition, in data set [2], a half-maximal response (EC50) required 7.72 µg/mL. In the data set on RSV, Long strain, the log reduction at 3 µg/mL came to 1.53, the log reduction at 6 µg/mL came to 1.86, the log reduction at 12 µg/mL was determined as 1.9 and the log reduction at 25 µg/mL is 1.88.
Take `O=C(Nc1cccc(NC(=O)C23CC4CC(CC(C4)C2)C3)c1)c1ccccc1F` [AB00359685]: the CC50 at 6 days in data set [1] is > 25 µg/mL. The compound also returned an EC50 in data set [2] of 9.42 µg/mL. Further, in the data set with RSV, Long strain, the log reduction at 3 µg/mL is 1, the log reduction at 6 µg/mL came to 2.13, the log reduction at 12 µg/mL was determined as 4.4 and the log reduction at 25 µg/mL was determined as 4.94.
In the case of `O=C1c2ccccc2C(=O)N1CCCCN(C(=O)c1ccco1)c1ccc(Cl)cc1` [AB00302018], the CC50 at 6 days in data set [1] was > 25 µg/mL. It took 3.4 µg/mL to reach a half-maximal effect in data set [2] (EC50). Also, in the data set with RSV, Long strain, the log reduction at 3 µg/mL was found to be 1.66, the log reduction at 6 µg/mL is 2.64, the log reduction at 12 µg/mL was 2.68 and the log reduction at 25 µg/mL was 3.07.

Values taken from patent publication US20130085133A1, “ANTI-VIRAL TREATMENT AND ASSAY TO SCREENFOR ANTI-VIRAL AGENT” (Sourthern Research Institute Office of Commercialization …, priority 2010, published 2013).
